Patent US20060069132A1, “Azolecarboxamide herbicides” (priority 2004, published 2006)

What was measured:
[1] = system: common (oilseed) sunflower; assay: Test C pre-/postemergence herbicide test; format: in vivo, Helianthus annuus; details: for Plant response rating (0 = no effect, 100 = complete control), Sunflower / Plant response rating, Sunflower: preemergence; for Sunflower plant response rating: Preemergence, 500 g ai/ha, scale 0 to 100, 0 no effect, 100 complete control
Procedure, shortened: (§1)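 Visual injury scores run from 0 (no effect) to 100 (complete control), assessed relative to untreated controls 12 to 14 days after treatment in the greenhouse. Chemicals were formulated in a non-phytotoxic solvent mixture with surfactant and applied to soil after planting or to emerged plants at the 1- to 4-leaf stage.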

goosegrass = assay: Test C pre-/postemergence herbicide test; format: in vivo, Eleusine indica; details: for Plant response rating (0 = no effect, 100 = complete control), Goosegrass / Plant response rating, Goosegrass: preemergence; for Goosegrass plant response rating: Preemergence, 500 g ai/ha, scale 0 to 100, 0 no effect, 100 complete control
Procedure, shortened: as §1

morningglory = assay: Test A pre-/postemergence herbicide test; format: in vivo, Ipomoea spp.
Procedure, shortened: (§2)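 Pre: seeded sandy loam, directed soil spray, compound in non-phytotoxic solvent + surfactant. Post: 1–2-leaf plants (2–10 cm), sprayed to runoff. Greenhouse ~10 d; visual injury vs untreated, 0–100 scale.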

soybean = assay: Test C pre-/postemergence herbicide test; format: in vivo, Glycine max; details: for Plant response rating (0 = no effect, 100 = complete control), Soybean / Plant response rating, Soybean: preemergence; for Soybean plant response rating: Preemergence, 500 g ai/ha, scale 0 to 100, 0 no effect, 100 complete control
Procedure, shortened: as §1

yellow nutsedge = assay: Test C pre-/postemergence herbicide test; format: in vivo, Cyperus esculentus; details: for Plant response rating (0 = no effect, 100 = complete control), Nutsedge, Yellow / Plant response rating, Nutsedge, Yellow: preemergence; for Nutsedge, Yellow plant response rating: Preemergence, 500 g ai/ha, scale 0 to 100, 0 no effect, 100 complete control
Procedure, shortened: as §1

velvetleaf [2] = assay: Test C pre-/postemergence herbicide test; format: in vivo, Abutilon theophrasti; details: for Plant response rating, Velvetleaf: preemergence; for Velvetleaf plant response rating: Preemergence, 500 g ai/ha, scale 0 to 100, 0 no effect, 100 complete control
Procedure, shortened: as §1

lambsquarters = assay: Test C pre-/postemergence herbicide test; format: in vivo, Chenopodium album; details: for Plant response rating (0 = no effect, 100 = complete control), Lambsquarters / Plant response rating, Lambsquarters: preemergence; for Lambsquarters plant response rating: Preemergence, 500 g ai/ha, scale 0 to 100, 0 no effect, 100 complete control
Procedure, shortened: as §1

cocklebur = assay: Test C pre-/postemergence herbicide test; format: in vivo, Xanthium strumarium; details: for Plant response rating (0 = no effect, 100 = complete control), Cocklebur / Plant response rating, Cocklebur: preemergence; for Cocklebur plant response rating: Preemergence, 500 g ai/ha, scale 0 to 100, 0 no effect, 100 complete control
Procedure, shortened: as §1

velvetleaf [3] = assay: Test A pre-/postemergence herbicide test; format: in vivo, Abutilon theophrasti
Procedure, shortened: as §2

[4] = 125 g ai/ha, scale 0 (no effect) to 100 (complete control), visual, 12 to 14 days
[5] = 250 g ai/ha, scale 0 to 100 (0 no effect, 100 complete control), visual, 12 to 14 days
[6] = Postemergence, 500 g ai/ha, 0 to 100 scale, 0 no effect, 100 complete control
[7] = Postemergence, 2000 g ai/ha, 0 to 100 scale, 0 no effect, 100 complete control
[8] = Preemergence, 500 g ai/ha, visual rating, 0 to 100 scale (0 no effect, 100 complete control)
[9] = Preemergence, 2000 g ai/ha, visual rating, 0 to 100 scale (0 no effect, 100 complete control)
[10] = preemergence, 500 g ai/ha, visual injury, 0 to 100 scale (0 no effect, 100 complete control)

## CCn1nc(C(C)(C)C)cc1C(=O)Nc1cccc(C(=O)NCC(C)C)c1 [Compound 61]
[1]; 62 g ai/ha
  Plant response rating (0 = no effect, 100 = complete control), Sunflower: 0
[1]; [4]
  Plant response rating, Sunflower: 0
[1]; [5]
  Plant response rating, Sunflower: 0
[1]
  Sunflower plant response rating: 0
goosegrass; 62 g ai/ha
  Plant response rating (0 = no effect, 100 = complete control), Goosegrass: 0
goosegrass; [4]
  Plant response rating, Goosegrass: 40
goosegrass; [5]
  Plant response rating, Goosegrass: 70
goosegrass
  Goosegrass plant response rating: 95
morningglory; [6]
  Plant response rating, Morningglory: 10
morningglory; [7]
  Plant response rating, Morningglory: 20
morningglory; [8]
  Morningglory plant response rating: 20
morningglory; Preemergence, 2000 g ai/ha, 0 to 100 scale, 0 no effect, 100 complete control
  Morningglory plant response rating: 50
soybean; 62 g ai/ha
  Plant response rating (0 = no effect, 100 = complete control), Soybean: 0
soybean; [4]
  Plant response rating, Soybean: 0
soybean; [5]
  Plant response rating, Soybean: 0
soybean
  Soybean plant response rating: 10
Yellow nutsedge; 62 g ai/ha
  Plant response rating (0 = no effect, 100 = complete control), Nutsedge, Yellow: 0
Yellow nutsedge; [4]
  Plant response rating, Nutsedge, Yellow: 0
Yellow nutsedge; [5]
  Plant response rating, Nutsedge, Yellow: 10
Yellow nutsedge
  Nutsedge, Yellow plant response rating: 30
Velvetleaf [2]; [4]
  Plant response rating, Velvetleaf: 45
Velvetleaf [2]; [5]
  Plant response rating, Velvetleaf: 80
Velvetleaf [2]
  Velvetleaf plant response rating: 100
lambsquarters; 62 g ai/ha
  Plant response rating (0 = no effect, 100 = complete control), Lambsquarters: 100
lambsquarters; [4]
  Plant response rating, Lambsquarters: 100
lambsquarters; [5]
  Plant response rating, Lambsquarters: 100
lambsquarters
  Lambsquarters plant response rating: 100
cocklebur; 62 g ai/ha
  Plant response rating (0 = no effect, 100 = complete control), Cocklebur: 0
cocklebur; [4]
  Plant response rating, Cocklebur: 0
cocklebur
  Cocklebur plant response rating: 0
Velvetleaf [3]; [7]
  Plant response rating, Velvetleaf: 15
Velvetleaf [3]; [8]
  Velvetleaf plant response rating: 55
Velvetleaf [3]; [9]
  Velvetleaf plant response rating: 85

## CCCCOc1cccc(NC(=O)c2cc(C(C)(C)C)nn2CC)c1 [Compound 137]
[1]; 62 g ai/ha
  Plant response rating (0 = no effect, 100 = complete control), Sunflower: 0
[1]; [4]
  Plant response rating, Sunflower: 0
[1]
  Sunflower plant response rating: 0
goosegrass; 62 g ai/ha
  Plant response rating (0 = no effect, 100 = complete control), Goosegrass: 40
goosegrass; [4]
  Plant response rating, Goosegrass: 85
goosegrass
  Goosegrass plant response rating: 100
morningglory; [6]
  Morningglory plant response rating: 25
morningglory; [7]
  Plant response rating, Morningglory: 40
morningglory; [8]
  Morningglory plant response rating: 20
morningglory; [9]
  Morningglory plant response rating: 35
soybean; 62 g ai/ha
  Plant response rating (0 = no effect, 100 = complete control), Soybean: 0
soybean; [4]
  Plant response rating, Soybean: 0
soybean
  Soybean plant response rating: 10
Yellow nutsedge; 62 g ai/ha
  Plant response rating (0 = no effect, 100 = complete control), Nutsedge, Yellow: 0
Yellow nutsedge; [4]
  Plant response rating, Nutsedge, Yellow: 0
Yellow nutsedge
  Nutsedge, Yellow plant response rating: 0
Velvetleaf [2]; [4]
  Plant response rating, Velvetleaf: 10
Velvetleaf [2]
  Velvetleaf plant response rating: 100
lambsquarters; 62 g ai/ha
  Plant response rating (0 = no effect, 100 = complete control), Lambsquarters: 40
lambsquarters; [4]
  Plant response rating, Lambsquarters: 100
lambsquarters
  Lambsquarters plant response rating: 100
cocklebur; 62 g ai/ha
  Plant response rating (0 = no effect, 100 = complete control), Cocklebur: 0
cocklebur; [4]
  Plant response rating, Cocklebur: 0
cocklebur; [5]
  Plant response rating, Cocklebur: 0
cocklebur
  Cocklebur plant response rating: 0
Velvetleaf [3]; [6]
  Velvetleaf plant response rating: 60
Velvetleaf [3]; [7]
  Plant response rating, Velvetleaf: 70
Velvetleaf [3]; [9]
  Velvetleaf plant response rating: 35
Velvetleaf [3]; [10]
  Velvetleaf plant response rating: 20

## CCN(CC)C(=O)c1ccnc(NC(=O)c2cc(C(C)(C)C)nn2CC)c1 [Compound 153]
[1]; 62 g ai/ha, scale 0 to 100
  Plant response rating, Sunflower: 0
[1]; [4]
  Plant response rating, Sunflower: 0
[1]
  Sunflower plant response rating: 0
goosegrass; 62 g ai/ha, scale 0 to 100
  Plant response rating, Goosegrass: 55
goosegrass; [4]
  Plant response rating, Goosegrass: 75
goosegrass
  Goosegrass plant response rating: 95
morningglory; [6]
  Morningglory plant response rating: 35
morningglory; [7]
  Plant response rating, Morningglory: 85
morningglory; [8]
  Morningglory plant response rating: 10
morningglory; [9]
  Morningglory plant response rating: 55
soybean; 62 g ai/ha, scale 0 to 100
  Plant response rating, Soybean: 0
soybean; [4]
  Plant response rating, Soybean: 0
soybean
  Soybean plant response rating: 15
Yellow nutsedge; 62 g ai/ha, scale 0 to 100
  Plant response rating, Nutsedge, Yellow: 0
Yellow nutsedge; [4]
  Plant response rating, Nutsedge, Yellow: 0
Yellow nutsedge
  Nutsedge, Yellow plant response rating: 45
Velvetleaf [2]; 62 g ai/ha, scale 0 to 100
  Plant response rating, Velvetleaf: 0
Velvetleaf [2]; [4]
  Plant response rating, Velvetleaf: 20
Velvetleaf [2]
  Velvetleaf plant response rating: 100
lambsquarters; 62 g ai/ha, scale 0 to 100
  Plant response rating, Lambsquarters: 95
lambsquarters; [4]
  Plant response rating, Lambsquarters: 100
lambsquarters
  Lambsquarters plant response rating: 100
cocklebur; 62 g ai/ha, scale 0 to 100
  Plant response rating, Cocklebur: 0
cocklebur; [4]
  Plant response rating, Cocklebur: 0
cocklebur; [5]
  Plant response rating, Cocklebur: 0
cocklebur
  Cocklebur plant response rating: 0
Velvetleaf [3]; [6]
  Velvetleaf plant response rating: 40
Velvetleaf [3]; [7]
  Plant response rating, Velvetleaf: 65
Velvetleaf [3]; [9]
  Velvetleaf plant response rating: 80
Velvetleaf [3]; [10]
  Velvetleaf plant response rating: 15
